A short description of the test: Activity toward hydrogen peroxide. In kind it is biochemical.
`CC(C)c1cc(C(=O)O)c([O-])c(C(C)C)c1.CC(C)c1cc(C(=O)O)c([O-])c(C(C)C)c1.[Cu+2]` [CuDIPS, copper [II] diisopropylsalicylate]: the “activity toward hydrogen peroxide” value is “significant activity”. For mangafodipir, the “activity toward hydrogen peroxide” value is reported as “significant activity”. Regarding “manganese [III] tetrakis-(5,10,15,20)-benzoic acid porphyrin [MnTBAP]”, the “activity toward hydrogen peroxide” value was “significant activity”.

Values taken from patent publication US11826373B2, “Methods for treatment of diseases” (Galera Labs, LLC, priority 2011, dated 2023).
